The text below walks through data of US4118561A, “7-(Substituted)-7H-pyrrolo[3,2-f]quinazoline-1,3-diamines” (priority 1977, dated 1978).

Assay [1] relates to bacterial infections. Kind of assay: Synergism with sulfamethoxazole against bacterial infections in mice, oral. It counts as in vivo. The procedure:
The invention also provides compounds which will potentiate the antibacterial effects of sulfa drugs.
The test agents are weighed, suspended in 0.5% aqueous carboxymethyl cellulose, homogenized (glass tissue grinder) and diluted according to the design of the experiment. Mice (male, 18±1 g., CD-1 strain) are pre-weighed, pooled, infected at random intraperitoneally with a 0.5 ml. standardized suspension (LD95 ±5%) of the bacterial organism in 5% gastric mucin and treated at random with single doses of the test agents either at the time of infection or six hours after infecting. The treated groups consist of ten mice per dosage level. Deaths are recorded daily for 14 days and the PD50 (mice are treated at time of infection) and CD50 (mice are treated six hours after infecting) values are calculated by the method of Reed and Muench [Amer. J. Hyg., 27, 493 (1938)].

The subject of assay [2] is K. pneumoniae 10031. Kind of assay: In vitro antibacterial activity (MIC), K. pneumoniae 10031. The conditions noted are these: Klebsiella pneumoniae, 10031, 18 h.

≈ marks a conversion by molar mass, not a printed value.

On to `N#Cc1ccc(Cn2ccc3c4c(N)nc(N)nc4ccc32)cc1` [Example 16, 7-[(4-cyanophenyl)methyl]-7H-pyrrolo[3,2-f]-quinazoline-1,3-diamine], for which the “synergistic effect with sulfamethoxazole” value in assay [1] was “synergistic effect”. In assay [2], this compound yielded an MIC of 0.061 µg/mL (≈ 0.194 µM).

The MIC is the smallest concentration in the dilution series that meets the test's criterion for growth inhibition. High values mean a less susceptible organism, low ones a more susceptible organism.
